Drawing on patent publication US4048430A, “Mercaptopseudotrisaccharides” (SmithKline Corporation, priority 1975, dated 1977), this text covers MIC for three compounds.

≈ marks a conversion by molar mass, not a printed value. Read-outs that look alike come from different tables or passages of the source.

For this assay, the system named is Pseudomonas aeruginosa. The assay is described as follows: standard agar inclusion test screen, minimum inhibitory concentration against Pseudomonas. It is filed as cell-based. The following applies: read-out: Minimum inhibitory concentrations (MIC). The method, then: Compounds of this invention where R, R', R" and Y are hydrogen have antibacterial activity against a variety of bacteria and are especially active against Pseudomonas. Minimum inhibitory concentrations (MIC), as obtained in a standard agar inclusion test screen, range from 25 to 200 μg/ml against Pseudomonas aeruginosa.

[1] abbreviates: standard agar inclusion test, Pseudomonas (aeruginosa).

On to `NC[C@H]1O[C@H](O[C@H]2[C@H](O)[C@@H](O)[C@H](N)C[C@@H]2N)[C@H](N)[C@@H](S)[C@@H]1O` [2-deoxy-4-O-(2,6-diamino-3-mercapto-2,3,6-trideoxy-α-D-glucopyranosyl)-D-streptamine], for which the MIC under setting [1] was found to be 63 µg/mL (≈ 186 µM).

As to `NC[C@H]1O[C@H](O[C@H]2[C@H](O)[C@@H](O)[C@H](N)C[C@@H]2N)[C@H](N)[C@@H](O)[C@@H]1S` [2-deoxy-4-O-(2,6-diamino-4-mercapto-2,4,6-trideoxy-α-D-glucopyranosyl)-D-streptamine], the MIC under setting [1] was 25 µg/mL (≈ 73.9 µM).

Take `NC[C@H]1O[C@H](O[C@H]2[C@H](O)[C@@H](O)[C@H](N)C[C@@H]2N)[C@H](N)[C@@H](O)[C@@H]1O` [neamine, 2-deoxy-4-O-(2,6-diamino-2,6-dideoxy-α-D-glucopyranosyl)-D-streptamine, reference compound]: where the note is “Pseudomonas aeruginosa”, the MIC is above 200 µg/mL.
